Source: patent US9862711B2, “Pyrazine derivatives as phosphatidylinositol 3-kinase inhibitors” (NOVARTIS AG, priority 2014, dated 2018)

molecular target: PI 3-kinase gamma (Homo sapiens (Human), UniProt P48736); assay: Cellular U937 AKT assay (Assay K); assay type: cell-based; details: AKT phosphorylation in U937 monocyte cells stimulated with 10 ng/ml MIP1α; read-out: Assay K PI3Kγ IC50
Experimental: Cellular U937 AKT Assay for PI 3-Kinase Gamma (K)
The U937 monocyte cell line is maintained in a basal medium of RPMI 1640 supplemented with 10% heat inactivated FCS, 100 U/ml Penicillin, 100 ug/ml streptomycin and 2 mM L-glutamine (Invitrogen). U937 suspension culture is maintained by seeding cells at a density of 0.125×10^6 cells per ml in fresh medium every three or four days. Cells are incubated at 37° C., 5% CO2. Three or four days prior to assay, cells are seeded at a density of 0.25×10^6 cells per ml in a total volume of 40 ml in a T162 culture flask.
Before beginning the cell manipulations described below, the MSD (Meso Scale Discovery) assay plate is blocked by addition of 150 ul/well blocking buffer supplied and incubated with shaking for a minimum of one hour at room temperature. All steps of the assay must be performed quickly, with accurately timed incubation periods and observing temperature controls where indicated.
Cells seeded at 0.25×10^6/ml 3 or 4 days prior to the assay are aspirated, transferred to a 50 ml falcon tube, counted and centrifuged for eight minutes at 300 g at room temperature. Supernatant is aspirated, the cell pellet resuspended and washed once in HBSS (Hank's Balanced Salt Solution) by centrifugation for eight minutes at 300 g at room temperature. The cell pellet is resuspended in HBSS to a concentration of 4×10^6 per ml, and 100 μL of cell suspension added to each well of a flat-bottomed 96-well tissue culture plate. Assay plates are incubated for 1.5 hours at 37° C., 5% CO2 to allow background AKT phosphorylation to reduce before the compound stimulation step.
A 5 mM stock concentration of compound is prepared in 100% DMSO; from this a 1 in 125 dilution is made in HBSS giving a top compound concentration of 40 μM, 0.8% DMSO. Compound titrations are prepared in a fresh flat-bottomed, 96-well plate, by 10-fold serial dilution of 40 uM into HBSS 0.8% DMSO; pipette tips are replaced after each dilution is made. Compound concentrations at this stage are 4-times the final concentration required in the assay plate. Cells are stimulated with compound or HBSS 0.8% DMSO by direct transfer of 50 ul/well from the compound dilution plate. The assay plate containing compound-treated cells is then incubated for 30 minutes at 37° C. A standard plate layout is used for all experiments.
Compound-treated cells, in addition to positive control wells (“max MIP1α”), are stimulated with 50 μL per well of 40 ng/ml MIP1α (R&D Systems catalogue number 270-LD, lyophilized stock reconstituted to 50 μg/ml with PBS 0.1% BSA). Negative control wells (“min HBSS”), are stimulated with 50 μl/well of HBSS in the absence of MIP1α. Final compound concentrations are now diluted 4-fold giving a top concentration of 10 μM; where added, the final concentration of MIP1α is 10 ng/ml. Cells are incubated with MIP1α for 3 minutes, at 37° C., 5% CO2. After the three minute stimulation period, the assay plate is kept ice cold at all times. Assay plates are centrifuged for 2 minutes at 300 g, 4° C. and supernatant is removed by gently inverting, and then blotting the plate on tissue. Cells are then washed by gentle addition of 150 μL/well of ice cold HBSS and centrifugation at 300 g, for 5 minutes at 4° C. Supernatant is aspirated and the plate blotted as described above. The plate is placed on ice and cells are immediately treated with 35 μL per well of ice cold lysis buffer, prepared according to the kit instructions (per assay plate, to 5 ml of Tris lysis buffer add 100 μl of 50× protease inhibitor solution and 50 μl of each 100× phosphatase inhibitor solutions I and II). Plates are incubated on ice for 20 minutes before centrifugation at 841 g for 5 minutes, 4° C.
Block buffer is aspirated from the MSD plate, and the plate washed four times with 300 μl/well Tris wash buffer. 25 μL of cell lysate is then transferred from the assay plate to the washed MSD plate which is sealed and incubated at room temperature for one hour with shaking. […]

PI 3-kinase gamma, sequence (P48736 whole entry): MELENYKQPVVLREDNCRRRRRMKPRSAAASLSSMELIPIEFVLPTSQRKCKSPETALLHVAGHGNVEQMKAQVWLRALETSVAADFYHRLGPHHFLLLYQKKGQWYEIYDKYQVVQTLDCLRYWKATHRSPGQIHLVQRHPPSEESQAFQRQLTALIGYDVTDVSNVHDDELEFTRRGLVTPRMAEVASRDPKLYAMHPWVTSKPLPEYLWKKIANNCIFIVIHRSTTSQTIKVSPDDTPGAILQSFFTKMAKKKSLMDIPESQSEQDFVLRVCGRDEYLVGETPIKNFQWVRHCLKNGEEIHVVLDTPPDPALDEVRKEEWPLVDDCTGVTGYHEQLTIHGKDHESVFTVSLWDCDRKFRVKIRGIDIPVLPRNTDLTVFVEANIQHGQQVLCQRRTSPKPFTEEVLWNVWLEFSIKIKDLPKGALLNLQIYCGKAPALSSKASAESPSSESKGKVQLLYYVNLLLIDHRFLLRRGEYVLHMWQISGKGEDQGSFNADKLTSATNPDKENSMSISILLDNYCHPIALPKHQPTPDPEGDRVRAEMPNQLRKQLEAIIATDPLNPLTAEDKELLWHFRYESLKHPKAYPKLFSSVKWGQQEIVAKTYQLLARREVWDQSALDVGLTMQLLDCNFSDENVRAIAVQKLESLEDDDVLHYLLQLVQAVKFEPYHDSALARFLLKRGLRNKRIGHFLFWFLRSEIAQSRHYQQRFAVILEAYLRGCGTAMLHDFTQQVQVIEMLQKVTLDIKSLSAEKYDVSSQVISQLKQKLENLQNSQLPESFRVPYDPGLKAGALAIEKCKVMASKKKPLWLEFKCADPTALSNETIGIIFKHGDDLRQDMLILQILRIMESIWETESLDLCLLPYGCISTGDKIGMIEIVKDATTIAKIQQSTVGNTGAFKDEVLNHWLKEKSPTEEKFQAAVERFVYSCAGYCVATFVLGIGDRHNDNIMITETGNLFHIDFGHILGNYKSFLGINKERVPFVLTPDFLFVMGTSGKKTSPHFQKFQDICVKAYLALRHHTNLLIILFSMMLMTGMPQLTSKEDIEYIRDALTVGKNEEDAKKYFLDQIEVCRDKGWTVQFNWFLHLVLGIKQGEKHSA

| Compound | IC50 [nM] |
| --- | --- |
| Cc1ccc(S(=O)(=O)NCCC(C)(C)O)cc1-c1cncc(-c2cn(C)nc2C)n1 [Example 3, 3-[6-(1,3-Dimethyl-1H-pyrazol-4-yl)-pyrazin-2-yl]-N-(3-hydroxy-3-methyl-butyl)-4-methyl-benzenesulfonamide] | 80 |
| Cc1ncc(-c2cncc(-c3cc(S(=O)(=O)NCCCO)ccc3C)n2)s1 [Example 1, N-(3-Hydroxy-propyl)-4-methyl-3-[6-(2-methyl-thiazol-5-yl)-pyrazin-2-yl]-benzenesulfonamide] | 329 |
| Cc1ccc(S(=O)(=O)NCC2(C)COC2)cc1-c1cncc(-c2cn(C)nc2C)n1 [Example 4, Trans 3-[6-(1,3-Dimethyl-1H-pyrazol-4-yl)-pyrazin-2-yl]-4-methyl-N-(3-methyl-oxetan-3-ylmethyl)-benzenesulfonamide] | 54 |
| Cc1ccc(S(=O)(=O)NCC(C)(C)O)cc1-c1cncc(-c2cn(C)nc2C)n1 [Example 2, 3-[6-(1,3-Dimethyl-1H-pyrazol-4-yl)-pyrazin-2-yl]-N-(2-hydroxy-2-methyl-propyl)-4-methyl-benzenesulfonamide] | 66 |
| Cc1ncc(-c2cncc(-c3cc(S(=O)(=O)N[C@H]4CC[C@H](O)CC4)ccc3C)n2)s1 [Example 5, Trans N-(4-Hydroxycyclohexyl)-4-methyl-3-(6-(2-methylthiazol-5-yl)pyrazin-2-yl)benzenesulfonamide] | 38 |

Next, values leading:

| IC50 [nM] | Compound |
| --- | --- |
| 213 | Cc1ccc(S(=O)(=O)N[C@H]2CC[C@H](O)CC2)cc1-c1cncc(-c2cccnc2)n1 [Example 11, Trans N-(4-Hydroxy-cyclohexyl)-4-methyl-3-(6-pyridin-3-yl-pyrazin-2-yl)-benzenesulfonamide] |
| 599 | Cc1ccc(S(=O)(=O)NCCC(C)(C)O)cc1-c1cncc(-c2cnn(CCN3CCOCC3)c2)n1 [Example 9, N-(3-Hydroxy-3-methyl-butyl)-4-methyl-3-{6-[1-(2-morpholin-4-yl-ethyl)-1H-pyrazol-4-yl]-pyrazin-2-yl}-benzenesulfonamide] |
| 121 | Cc1ccc(S(=O)(=O)NCCC(C)(C)O)cc1-c1cncc(-c2cn(CCN3CCOCC3)nc2C)n1 [Example 10, N-(3-Hydroxy-3-methyl-butyl)-4-methyl-3-{6-[3-methyl-1-(2-morpholin-4-yl-ethyl)-1H-pyrazol-4-yl]-pyrazin-2-yl}-benzenesulfonamide] |
| 96 | Cc1ccc(S(=O)(=O)NCC(C)(C)CO)cc1-c1cncc(-c2cn(C)nc2C)n1 [Example 8, 3-[6-(1,3-Dimethyl-1H-pyrazol-4-yl)-pyrazin-2-yl]-N-(3-hydroxy-2,2-dimethyl-propyl)-4-methyl-benzenesulfonamide] |
